Assay results as given in patent US8455552B2, “Composition comprising S-allylmercapto-N-acetylcysteine (ASSNAC) for up-regulation of cellular glutathione level” (RAMOT et Tel Aviv University Ltd., priority 2007, dated 2013).
Where two headings read alike, the source gives them in different places.

What was measured:
Endothelial cells (EC) = assay: Cytotoxicity test, BuOOH-stimulated cytotoxicity in endothelial cells (Neutral Red); assay type: cell-based, bovine; settings: pre-incubation 18 hours; ASSNAC 0.2 mM vs NAC 1 mM and CSSA 0.2 mM; BuOOH 0.1 mM 3 hours
Protocol: (§1) Bovine aortic endothelial cells (EC) were prepared from bovine aorta, cultured in DMEM supplemented with 5% fetal calf serum, 5% calf serum, 2 mM L-glutamine, 100 U/ml penicillin, 100 μg/ml streptomycin, 12.5 U/ml nystatin and FGF-2 (3 ng/ml; added every 48 hours). Cultures were incubated at 37° C. in a humidified 10% CO2 atmosphere and passages 12-18 were used for experiments.
Endothelial cells (EC; 10^4 cells/well) were grown till confluency in fibronectin-coated (5 μg/ml) 96 wells plates. Confluent EC were pre-incubated with ASSNAC 0.2 mM, CSSA 0.2 mM and NAC 1 mM for 18 hours in growth medium at 37° C. Subsequently, cells were washed with serum free DMEM medium and treated with […] ([…]) 0.1 mM for 3 hours. The number of viable cells was determined by Neutral Red (NR) staining method. After removing the culture medium, cells were incubated in NR working solution (1:100 in DCCM) for 2 hours at 37° C. […] Optical density of the dye was determined at 550 nm in an ELISA reader. The cell cytotoxicity was calculated by the following formula: Cytotoxicity (%)=[1−NR uptake in treated wells/NR uptake in control wells]×100 The control (untreated wells) were determined as 0% cytotoxity, the average of triplicates of each treatment is shown.

TGF β2 = assay: Gene expression by real-time PCR in EC: TGF β2; assay type: cell-based, bovine; settings: 3 hours; ASSNAC 0.2 mM, LPS 1 μg/ml
Excerpt: (§2) Total RNA was collected by EZ-RNA 2 kit, treated with DNAse, converted to cDNA and assayed in triplicate by real-time quantitative PCR using a ABI Prism 7700 Sequence Detector System (Applied Biosystem, Foster City, Calif., USA), with Absolute SYBR Green ROX mix and analyzed (SDS 2.1 software). Primers: human glutamate-cysteine-ligase modifier subunit (GCLM)—Forward: 5′[…] GTAAC3′ • and Reverse: 5′[…]3′; • Human heme oxygenase-1 (HO-1)—Forward: 5′[…]3′ • and Reverse: 5′[…]3′; • bovine TGF β2—Forward: […] • and Reverse: […]; • bovine TNF-alfa—Forward: […] • and Reverse: […]; • bovine ICAM-1—Forward: […] • and Reverse: […]; • bovine VCAM-1 Forward: […] • and Reverse: […]. • Results were normalized based on the quantity of human β-actin. Primers—Forward: 5′CCTGGCACCCAGCACAAT3′ and Reverse: 5′[…]3′.
(§3) The effect of ASSNAC on gene expression was further shown to be specific. Endothelial cells (EC) were treated by ASSNAC (0.2 mM) and LPS (1 μg/ml) for 3 hours following by mRNA extraction. The expression of the inflammatory genes TGF β2, ICAM-1, VCAM-1 and TNFα was then studied by Real-Time PCR. […] Only TGF β2 was induced by ASSNAC and to a lesser extent by LPS. TNFα expression was not induced by either ASSNAC or LPS (Table 2B).

heme oxygenase-1 (HO-1) = assay: Gene expression by real-time PCR in EC: HO-1; assay type: cell-based, bovine; settings: 3 hours; NAC 2 mM, ASSNAC 0.2 mM
Excerpt: as §2
(§4) Increased expression of the phase II detoxifying enzymes by cells is indicative of increased protection against oxidative stress. In order to determine the effect of NAC and ASSNAC on gene expression in EC, cells were treated with NAC (2 mM) and ASSNAC (0.2 mM) for 3 hours following by extraction of mRNA. The expression of GCLM and HO-1 was then studied by Real-Time PCR. […] Without being bound by any theory or mechanism of action, the GCLM activity and the cystein level are considered to be the rate limiting step of the glutathione synthesis. […]

VCAM-1 = assay: Gene expression by real-time PCR in EC: VCAM-1; assay type: cell-based, bovine; settings: 3 hours; ASSNAC 0.2 mM, LPS 1 μg/ml
Excerpt: as §2, §3

[1] = system: glutamate-cysteine-ligase modifier subunit (GCLM); assay: Gene expression by real-time PCR in EC: GCLM; assay type: cell-based, bovine; settings: 3 hours; NAC 2 mM, ASSNAC 0.2 mM
Excerpt: as §2, §4

[2] = system: human neuroblastomas SH-SY5Y cell line; assay: Cellular glutathione level in SH-SY5Y cultures; assay type: cell-based
Protocol: In order to establish the potential effect of ASSNAC on glutathione up-regulation in the nerve system as a mean to protect against neurodegenerative diseases the effect of ASSNAC on the human neuroblastomas SH-SY5Y cell line was studied. The cells were cultured in DMEM supplemented with 10% fetal calf serum, 2 mM L-glutamine, 100 U/ml penicillin, 100 μg/ml streptomycin, 12.5 U/ml nystatin. Cultures were incubated at 37° C. in a humidified 10% CO2 atmosphere.
(§5) EC cultures were incubated in the presence or absence of PDTC, NAC, ASSNAC and their combinations. At the end of the incubation, cells were washed, collected into 10 mM HCl and further lyzed by samples freezing (in liquid nitrogen) and thawing, 3 times. Cell protein was precipitated by addition of SSA (10%) followed by centrifugation at 10,000 g and supernatant was collected for glutathione determination. Total glutathione (GSH+GSSG) was determined by the Anderson recycling method. Briefly, a reaction mixture containing phosphate buffer, EDTA, DTNB, NADPH and glutathione reductase was added to 96-wells plates already containing 20 μl of the experimental samples or a GSSG standard. The plates were shaken and OD at 405 nm was monitored at 10 sec intervals for 130 sec in a micro-plate reader. To determine the GSSG level in the total cellular glutathione, 2-vinylpyridine was used to conjugate GSH and remove it from the mixture followed by total glutathione determination as described above. For normalization, the protein pellet of each sample was lyzed in 0.2 N NaOH and quantified by the Lowry method.
The effect was observable at a concentration of 0.05 mM with a 2.4-fold maximal increase in glutathione at a concentration of 0.2 mM. The results are presented as mean±SD (n=2). A significant increase in glutathione was determined by ANOVA analysis (p<0.005; FIG. 8A).
Confluent SH-SY5Y cultures were exposed to ASSNAC (0.2 mM) for various time periods. The cultures were then washed and the cellular level of total glutathione was determined. […] The results are presented as mean±SD (n=2). A significant increase in glutathione was determined by ANOVA analysis (p<0.005; FIG. 8B).

[3] = system: human neuroblastomas SH-SY5Y cell line; assay: Protection of SH-SY5Y cultures against tBuOOH cytotoxicity (neutral red); settings: then tBuOOH 1 mM 3 hours
TNFα = assay: Gene expression by real-time PCR in EC: TNFα; assay type: cell-based, bovine; settings: 3 hours; ASSNAC 0.2 mM, LPS 1 μg/ml
Excerpt: as §2, §3

ICAM-1 = assay: Gene expression by real-time PCR in EC: ICAM-1; assay type: cell-based, bovine; settings: 3 hours; ASSNAC 0.2 mM, LPS 1 μg/ml
Excerpt: as §2, §3

[4] = system: Bovine aortic endothelial cells (EC); assay: Determination of total glutathione in endothelial cell cultures; assay type: cell-based; settings: for glutathione cellular level as a function of time: FIG. 2A; for EC50: Bos taurus, Endothelial cell, concentration giving half-maximal increase of glutathione level, read-out: HALF-maximal (effect of increased glutathione level); for Maximal effect (increased glutathione level): concentration giving maximal increase of glutathione level
Protocol: as §1, §5

[5] = system: Bovine aortic endothelial cells (EC); settings: from L. Horev-Azaria, Ph.D. Thesis, cited from earlier work
[6] = 24 hours, increasing concentrations

Row | Molecule | EC50 [4] [µM] | TGF β2 gene expression (TGF β2) | HO-1 gene expression (heme oxygenase-1 (HO-1)) | VCAM-1 gene expression (VCAM-1) | GCLM gene expression [1] | TNFα gene expression (TNFα) | ICAM-1 gene expression (ICAM-1) | Maximal Fold Increase (glutathione level) [4] | glutathione cellular level as a function of time ([4]; 0.2 mM) | concentration of maximal effect on glutathione level [4, 6] [mM] | Maximal effect (increased glutathione level) [4] [µM] | further results
1 | C=CCS[S+]([O-])CC=C (centres unmarked) [Allicin] | – | – | – | – | – | – | – | – | – | – | – | Maximal Fold Increase (glutathione level) [5]: 8; Maximal effect (increased glutathione level) [5]: 20 µM; EC50 ([5]; read-out: HALF-maximal (effect of increased glutathione level)): 7 µM
2 | S=C(S)N1CCCC1 [PDTC, Pyrrolidine dithiocarbamate] | – | – | – | – | – | – | – | – | – | – | – | reduced glutathione (GSH) versus PDTC concentration ([4]; 24 hours, increasing concentrations, FIG. 6A): concentration dependent increase; concentration of GSH versus time ([4]; PDTC 0.1 mM, increasing time intervals, FIG. 6B): linear increase
3 | lipopolysacharide [LPS] | – | 5.7 | – | 104.7 | – | 0.71 | 19.52 | – | – | – | – | –

More lines, main results first:

Row | EC50 [4] [µM] | Molecule | TGF β2 gene expression (TGF β2) | HO-1 gene expression (heme oxygenase-1 (HO-1)) | VCAM-1 gene expression (VCAM-1) | GCLM gene expression [1] | TNFα gene expression (TNFα) | ICAM-1 gene expression (ICAM-1) | Maximal Fold Increase (glutathione level) [4] | glutathione cellular level as a function of time ([4]; 0.2 mM) | concentration of maximal effect on glutathione level [4, 6] [mM] | Maximal effect (increased glutathione level) [4] [µM] | further results
4 | 60 | C=CCSSC[C@H](NC(C)=O)C(=O)O [ASSNAC, S-allylmercapto-N-acetylcysteine] | 2.14 | 8.2 ± 4.2 (n = 4) | 0.94 | 2.3 ± 1.0 (n = 4) | 0.77 | 1.03 | 4 | significant increase in glutathione cellular level | 0.2 | 200 | protection of cells from BuOOH oxidation stress (Endothelial cells (EC)): better protection; concentration at which increase in glutathione is observable ([2]; 24 hours): 0.05 mM; concentration of maximal increase in glutathione ([2]; 24 hours): 0.2 mM; maximal increase in glutathione ([2]; 24 hours, at 0.2 mM): 2.4 fold; time of maximal increase in glutathione ([2]; ASSNAC 0.2 mM): 24 h; cytotoxicity after ASSNAC pretreatment ([3]; ASSNAC 0.2 mM 24 hours): 25%; concentration at which decrease in cytotoxicity starts ([3]; pretreatment 24 hours): 25 µM; glutathione level after 24 hours, ASSNAC in comparison to CSSA ([4]; 0.2 mM, 24 hours): higher glutathione level; concentration at which up-regulation of glutathione level starts [4, 6]: 0.05 mM; signs of cytotoxic effect ([4]; up to a concentration of 2.0 mM, 24 hours): without any signs of cytotoxic effect
5 | 70 | C=CCSSC[C@H](N)C(=O)O [CSSA, S-allylmercaptocysteine] | – | – | – | – | – | – | 2 | significant increase in glutathione cellular level | – | 200 | speed of glutathione response ([4]; 0.2 mM, CSSA compared with ASSNAC): faster response; distribution of glutathione up-regulation between GSH and GSSG ([4]; 0.3 mM CSSA, FIG. 4): increase in GSH but not in GSSG level; GSSG level as share of the total cellular glutathione level ([4]; 0.3 mM CSSA, different time intervals): lower than 2%
6 | 320 | CC(=O)N[C@@H](CS)C(=O)O [NAC, N-acetylcysteine] | – | 0.9 ± 0.1 (n = 3) | – | 1.0 ± 0.2 (n = 3) | – | – | 2.5 | – | 2 | 500 | time to maximal increase in glutathione level ([4]; NAC 2 mM): 6 h
